Where “and” joins values, the source holds several entries; their conditions need not be identical. Equal entries are not always repeated. Toxic doses and inconclusive results are not listed.
Test system: BDF1 mice, B16 melanoma ip, median survival T/C
Test: NCI In Vivo Anticancer Drug Screen. Data for tumor model B16 Melanoma (intraperitoneal) in B6D2F1 (BDF1) mice
Conditions: endpoint: median survival time, higher = longer survival
How it was run: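 Each result divides a survival or tumor-size measurement in the compound-treated group by the same measurement in the vehicle group.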

[1] = dose: 50.0 mg/kg/injection, schedule: Q01DX009 (ip), vehicle: Klucel (hydroxypropylcellulose) (HPC)
[2] = dose: 100.0 mg/kg/injection, schedule: Q01DX009 (ip), vehicle: Klucel (hydroxypropylcellulose) (HPC)
[3] = dose: 12.5 mg/kg/injection, schedule: Q01DX009 (ip), vehicle: Klucel (hydroxypropylcellulose) (HPC)
[4] = dose: 25.0 mg/kg/injection, schedule: Q01DX009 (ip), vehicle: Klucel (hydroxypropylcellulose) (HPC)
[5] = dose: 50.0 mg/kg/injection, schedule: Q01DX009 (ip), vehicle: saline with Tween-80
[6] = dose: 100.0 mg/kg/injection, schedule: Q01DX009 (ip), vehicle: saline with Tween-80
[7] = dose: 200.0 mg/kg/injection, schedule: Q01DX009 (ip), vehicle: saline with Tween-80
[8] = dose: 200.0 mg/kg/injection, schedule: Q01DX009 (ip), vehicle: Klucel (hydroxypropylcellulose) (HPC)
[9] = dose: 6.25 mg/kg/injection, schedule: Q01DX009 (ip), vehicle: saline with Tween-80
[10] = dose: 12.5 mg/kg/injection, schedule: Q01DX009 (ip), vehicle: saline with Tween-80
[11] = dose: 25.0 mg/kg/injection, schedule: Q01DX009 (ip), vehicle: saline with Tween-80

## CC(C)NC(=O)N(c1ccccc1)C(C)C
[1]
  T/C: 105 % of control
[2]
  T/C: 103 % of control

## O=C(Nc1cccc(C(F)(F)F)c1)c1ccc(Cl)c(Cl)c1
dose: 50.0 mg/kg/injection, schedule: Q01DX009 (ip), vehicle: gum acacia
  T/C: 105 % of control
dose: 100.0 mg/kg/injection, schedule: Q01DX009 (ip), vehicle: gum acacia
  T/C: 119 % of control
dose: 200.0 mg/kg/injection, schedule: Q01DX009 (ip), vehicle: gum acacia
  T/C: 113 % of control
dose: 400.0 mg/kg/injection, schedule: Q01DX009 (ip), vehicle: gum acacia
  T/C: 100 % of control

## CC(C)N=C(N)/N=C(\N)Nc1ccc2ccc3ccccc3c2c1
dose: 6.25 mg/kg/injection, schedule: Q01DX009 (ip), vehicle: Klucel (hydroxypropylcellulose) (HPC)
  T/C: 112 % of control
[3]
  T/C: 103 % of control
[4]
  T/C: 87 % of control

## O=[N+]([O-])c1ccc([S][Pb]([c]2ccccc2)([c]2ccccc2)[c]2ccccc2)cc1
dose: 6.25 mg/kg/injection, schedule: Q04DX003 (ip), vehicle: Klucel (hydroxypropylcellulose) (HPC)
  T/C: 94 % of control
dose: 12.5 mg/kg/injection, schedule: Q04DX003 (ip), vehicle: Klucel (hydroxypropylcellulose) (HPC)
  T/C: 97 % of control
dose: 25.0 mg/kg/injection, schedule: Q04DX003 (ip), vehicle: Klucel (hydroxypropylcellulose) (HPC)
  T/C: 93 % of control
dose: 50.0 mg/kg/injection, schedule: Q04DX003 (ip), vehicle: Klucel (hydroxypropylcellulose) (HPC)
  T/C: 88 % of control

## CC(C)CN(CCCCO)CC(C)C
[5]
  T/C: 102 % of control
[6]
  T/C: 111 % of control
[7]
  T/C: 98 % of control

## C/C(=N/NC(N)=S)c1ccc2ccccc2c1
dose: 6.0 mg/kg/injection, schedule: Q01DX009 (ip), vehicle: saline with Tween-80
  T/C: 111 % of control
dose: 12.0 mg/kg/injection, schedule: Q01DX009 (ip), vehicle: saline with Tween-80
  T/C: 105 % of control

## Cc1ccc(NS(=O)(=O)c2cccc([N+](=O)[O-])c2)cc1Cl
[6]
  T/C: 107 % of control
[7]
  T/C: 105 % of control
dose: 400.0 mg/kg/injection, schedule: Q01DX009 (ip), vehicle: saline with Tween-80
  T/C: 96 % of control

## Cc1ccc(S(=O)(=O)Nc2ccccc2-c2nc3c(Cl)ccc(Cl)c3c(=O)o2)cc1
[2]
  T/C: 105 % of control
[8]
  T/C: 92 % of control

## COc1ccc(C2=CC(=O)N(C(C)C)C2=O)cc1
dose: 20.0 mg/kg/injection, schedule: Q04DX003 (ip), vehicle: saline with Tween-80
  T/C: 109 % of control
dose: 40.0 mg/kg/injection, schedule: Q04DX003 (ip), vehicle: saline with Tween-80
  T/C: 113 % of control
dose: 80.0 mg/kg/injection, schedule: Q04DX003 (ip), vehicle: saline with Tween-80
  T/C: 111 % of control

## NCCN.[Ni+2].[O-]c1ccccc1[O-].[O-]c1ccccc1[O-]
dose: 1.56 mg/kg/injection, schedule: Q01DX009 (ip), vehicle: saline with Tween-80
  T/C: 100 % of control
dose: 3.13 mg/kg/injection, schedule: Q01DX009 (ip), vehicle: saline with Tween-80
  T/C: 97 % of control
[9]
  T/C: 87 % of control
[10]
  T/C: 87 % of control

## CC[C@@]1(O)C[C@H](OC2CC(N(C)C)C(OC3CC(O)C(OC4CCC(=O)C(C)O4)C(C)O3)C(C)O2)c2c(cc3c(c2O)C(=O)c2c(O)cccc2C3=O)[C@H]1C(=O)OC (stereo partly drawn)
dose: 0.75 mg/kg/injection, schedule: Q01DX001 (ip), vehicle: water
  T/C: 100 % of control and 106 % of control and 112 % of control
dose: 0.75 mg/kg/injection, schedule: Q01DX009 (ip), vehicle: Klucel (hydroxypropylcellulose) (HPC)
  T/C: 123 % of control
dose: 1.5 mg/kg/injection, schedule: Q01DX001 (ip), vehicle: water
  T/C: 105 % of control and 112 % of control and 120 % of control
dose: 1.56 mg/kg/injection, schedule: Q01DX001 (ip), vehicle: water
  T/C: 103 % of control
dose: 2.16 mg/kg/injection, schedule: Q01DX001 (ip), vehicle: water
  T/C: 95 % of control and 97 % of control
dose: 3.0 mg/kg/injection, schedule: Q01DX001 (ip), vehicle: water
  T/C: 110 % of control and 124 % of control
dose: 3.0 mg/kg/injection, schedule: Q01DX009 (ip), vehicle: saline
  T/C: 160 % of control
dose: 3.13 mg/kg/injection, schedule: Q01DX001 (ip), vehicle: water
  T/C: 110 % of control
dose: 3.6 mg/kg/injection, schedule: Q01DX001 (ip), vehicle: water
  T/C: 91 % of control and 101 % of control
dose: 6.25 mg/kg/injection, schedule: Q01DX001 (ip), vehicle: water
  T/C: 124 % of control
dose: 8.0 mg/kg/injection, schedule: Q01DX001 (ip), vehicle: water
  T/C: 106 % of control and 120 % of control
dose: 10.0 mg/kg/injection, schedule: Q01DX001 (ip), vehicle: water
  T/C: 100 % of control
dose: 12.0 mg/kg/injection, schedule: Q01DX001 (ip), vehicle: water
  T/C: 110 % of control and 124 % of control
dose: 12.5 mg/kg/injection, schedule: Q01DX001 (ip), vehicle: water
  T/C: 114 % of control and 121 % of control
dose: 25.0 mg/kg/injection, schedule: Q01DX001 (ip), vehicle: water
  T/C: 98 % of control

## O=C(O)[C@@H]1[C@H]2C[C@H]3c4[nH]c5ccccc5c4CCN3C[C@@H]2CC[C@@H]1O
[4]
  T/C: 89 % of control
[1]
  T/C: 88 % of control
[2]
  T/C: 97 % of control
[8]
  T/C: 92 % of control

## Oc1ccc(/C=N/Nc2nnc(N/N=C/c3ccc(O)cc3O)c3ccccc23)c(O)c1
dose: 3.13 mg/kg/injection, schedule: Q01DX009 (ip), vehicle: suspension in saline
  T/C: 101 % of control
dose: 6.25 mg/kg/injection, schedule: Q01DX009 (ip), vehicle: suspension in saline
  T/C: 98 % of control
dose: 12.5 mg/kg/injection, schedule: Q01DX009 (ip), vehicle: suspension in saline
  T/C: 89 % of control
dose: 25.0 mg/kg/injection, schedule: Q01DX009 (ip), vehicle: suspension in saline
  T/C: 90 % of control

## CC(=O)N1CCC2(CC1)SSC1(CCN(C(C)=O)CC1)S2
dose: 5.0 mg/kg/injection, schedule: Q01DX009 (ip), vehicle: saline with Tween-80
  T/C: 105 % of control
dose: 10.0 mg/kg/injection, schedule: Q01DX009 (ip), vehicle: saline with Tween-80
  T/C: 112 % of control

## Cc1cc(O)c(C(C)C)cc1S(=O)(=O)O (tested in a mixture with another compound)
[5]
  T/C: 98 % of control
[7]
  T/C: 100 % of control

## CCO/C=C1\SC(=S)N(Cc2ccccc2)C1=O
dose: 3.12 mg/kg/injection, schedule: Q01DX009 (ip), vehicle: saline with Tween-80
  T/C: 111 % of control
[9]
  T/C: 123 % of control
[3]
  T/C: 92 % of control
[10]
  T/C: 123 % of control
[4]
  T/C: 102 % of control and 105 % of control
[11]
  T/C: 111 % of control

## CC[n+]1ccc(Nc2ccc(NC(=O)c3ccc(Nc4cc[n+](CC)c5ccc(N)cc45)cc3)cc2)cc1
dose: 0.5 mg/kg/injection, schedule: Q01DX009 (ip), vehicle: saline
  T/C: 95 % of control
dose: 0.5 mg/kg/injection, schedule: Q01DX009 (ip), vehicle: water
  T/C: 96 % of control
dose: 1.0 mg/kg/injection, schedule: Q01DX009 (ip), vehicle: saline
  T/C: 102 % of control
dose: 1.0 mg/kg/injection, schedule: Q01DX009 (ip), vehicle: water
  T/C: 113 % of control
dose: 2.0 mg/kg/injection, schedule: Q01DX009 (ip), vehicle: saline
  T/C: 100 % of control
dose: 2.0 mg/kg/injection, schedule: Q01DX009 (ip), vehicle: water
  T/C: 116 % of control
dose: 4.0 mg/kg/injection, schedule: Q01DX009 (ip), vehicle: saline
  T/C: 111 % of control
dose: 4.0 mg/kg/injection, schedule: Q01DX009 (ip), vehicle: water
  T/C: 106 % of control
dose: 8.0 mg/kg/injection, schedule: Q01DX009 (ip), vehicle: saline
  T/C: 114 % of control

## Clc1nnc(Nc2ccccc2)c2ccccc12
[2]
  T/C: 92 % of control
[8]
  T/C: 97 % of control
dose: 400.0 mg/kg/injection, schedule: Q01DX009 (ip), vehicle: Klucel (hydroxypropylcellulose) (HPC)
  T/C: 86 % of control

## COC(=O)[C@H]1[C@H]2C[C@@H]3c4[nH]c5cc(OC)ccc5c4CCN3C[C@H]2C[C@@H](OC(=O)c2cccc(N(C)C)c2)[C@@H]1OC
dose: 0.39 mg/kg/injection, schedule: Q01DX009 (ip), vehicle: Klucel (hydroxypropylcellulose) (HPC)
  T/C: 93 % of control
dose: 0.78 mg/kg/injection, schedule: Q01DX009 (ip), vehicle: Klucel (hydroxypropylcellulose) (HPC)
  T/C: 91 % of control and 94 % of control
dose: 1.56 mg/kg/injection, schedule: Q01DX009 (ip), vehicle: Klucel (hydroxypropylcellulose) (HPC)
  T/C: 97 % of control and 116 % of control
dose: 3.12 mg/kg/injection, schedule: Q01DX009 (ip), vehicle: Klucel (hydroxypropylcellulose) (HPC)
  T/C: 94 % of control

## O=C1C=C(C2CCCCC2)C(=O)c2ccccc21
[10]
  T/C: 106 % of control
[11]
  T/C: 101 % of control
[5]
  T/C: 92 % of control
[6]
  T/C: 92 % of control

— PubChem BioAssay AID192 (DTP/NCI, 2004)
